Patent US12662451B2, “Chemical compounds and uses thereof” (GLAXOSMITHKLINE INTELLECTUAL PROPERTY (NO.4) LIMITED, priority 2023, dated 2026)
Where a name gives a salt, the structure may show the parent alone. Read-outs that look alike come from different tables or passages of the source.

What was measured:
[1] = system: SW48 human colorectal cancer cells; assay: Calculated free drug potency in SW48 cell assay, corrected with media free fraction (Example C); assay type: cell-based; conditions: Homo sapiens, SW48, SW48 pCC50 corrected with measured free fraction in cell assay media
Experimental: (§1) It was observed that the compounds of the present disclosure are bound to cell assay media to various degrees, which would affect the cellular potency analysis in Example B. To measure free drug potency, concentrations used in the cell assays were corrected with the measured free fraction determined in the cell assay media. Compounds were incubated in a rapid equilibrium dialysis (RED) at a nominal concentration of 1 μM, using a dialysis buffer of phosphate-buffered saline (PBS, 100 mM sodium phosphate+150 mM sodium chloride, pH 7.4). The test compound was spiked into the medium. Aliquots were added to the donor wells of a RED plate in triplicate, and blank PBS was added to each receiver well, at volumes recommended by the manufacturer. Plates were incubated with shaking at 200 rpm for 4 hours at 37° C. The resultant samples were analysed by LC-MS/MS using a specific and sensitive method. Results were reported as analyte:internal standard peak area ratios (PARs), and the percent unbound was calculated with the following equation:
(§2) [formula] where Cfinal=PAR in the T=240 minute sample; Cinitial=PAR in the T=0 minute sample. Cell culture media unbound percentage and calculated free drug potency of selected compounds along with their measured potency from Example B are shown in Table 3.

[2] = Cell culture media unbound percentage and stability by rapid equilibrium dialysis (Example C); assay type: in vitro ADME; conditions: bovine, cell assay medium (RPMI-1640 with 10% fetal bovine serum), pH 7.4, rapid equilibrium dialysis, 4 hours at 37° C., read-out: Cell Culture Media Binding (% unbound)
Experimental: as §1
[formula] where D=the matrix dilution factor (D=1 for media); Apparent Fu=Crec/Cdon; Crec=PAR in receiver samples; Cdon=PAR in donor samples. Percent stability was calculated by:
as §2

[3] = target: T1, recombinant full-length WRN protein (1-1432) (Homo sapiens, UniProt Q14191); assay: WRN unwinding activity, fluorogenic 384-well assay (Example A); assay type: biochemical; conditions: WRN unwinding activity, 4 hr; Table 2; read-out: 4 hr UNW pIC50 (converted)
T1 construct: recombinant full-length WRN protein (1-1432)
T1 sequence (Q14191 whole entry): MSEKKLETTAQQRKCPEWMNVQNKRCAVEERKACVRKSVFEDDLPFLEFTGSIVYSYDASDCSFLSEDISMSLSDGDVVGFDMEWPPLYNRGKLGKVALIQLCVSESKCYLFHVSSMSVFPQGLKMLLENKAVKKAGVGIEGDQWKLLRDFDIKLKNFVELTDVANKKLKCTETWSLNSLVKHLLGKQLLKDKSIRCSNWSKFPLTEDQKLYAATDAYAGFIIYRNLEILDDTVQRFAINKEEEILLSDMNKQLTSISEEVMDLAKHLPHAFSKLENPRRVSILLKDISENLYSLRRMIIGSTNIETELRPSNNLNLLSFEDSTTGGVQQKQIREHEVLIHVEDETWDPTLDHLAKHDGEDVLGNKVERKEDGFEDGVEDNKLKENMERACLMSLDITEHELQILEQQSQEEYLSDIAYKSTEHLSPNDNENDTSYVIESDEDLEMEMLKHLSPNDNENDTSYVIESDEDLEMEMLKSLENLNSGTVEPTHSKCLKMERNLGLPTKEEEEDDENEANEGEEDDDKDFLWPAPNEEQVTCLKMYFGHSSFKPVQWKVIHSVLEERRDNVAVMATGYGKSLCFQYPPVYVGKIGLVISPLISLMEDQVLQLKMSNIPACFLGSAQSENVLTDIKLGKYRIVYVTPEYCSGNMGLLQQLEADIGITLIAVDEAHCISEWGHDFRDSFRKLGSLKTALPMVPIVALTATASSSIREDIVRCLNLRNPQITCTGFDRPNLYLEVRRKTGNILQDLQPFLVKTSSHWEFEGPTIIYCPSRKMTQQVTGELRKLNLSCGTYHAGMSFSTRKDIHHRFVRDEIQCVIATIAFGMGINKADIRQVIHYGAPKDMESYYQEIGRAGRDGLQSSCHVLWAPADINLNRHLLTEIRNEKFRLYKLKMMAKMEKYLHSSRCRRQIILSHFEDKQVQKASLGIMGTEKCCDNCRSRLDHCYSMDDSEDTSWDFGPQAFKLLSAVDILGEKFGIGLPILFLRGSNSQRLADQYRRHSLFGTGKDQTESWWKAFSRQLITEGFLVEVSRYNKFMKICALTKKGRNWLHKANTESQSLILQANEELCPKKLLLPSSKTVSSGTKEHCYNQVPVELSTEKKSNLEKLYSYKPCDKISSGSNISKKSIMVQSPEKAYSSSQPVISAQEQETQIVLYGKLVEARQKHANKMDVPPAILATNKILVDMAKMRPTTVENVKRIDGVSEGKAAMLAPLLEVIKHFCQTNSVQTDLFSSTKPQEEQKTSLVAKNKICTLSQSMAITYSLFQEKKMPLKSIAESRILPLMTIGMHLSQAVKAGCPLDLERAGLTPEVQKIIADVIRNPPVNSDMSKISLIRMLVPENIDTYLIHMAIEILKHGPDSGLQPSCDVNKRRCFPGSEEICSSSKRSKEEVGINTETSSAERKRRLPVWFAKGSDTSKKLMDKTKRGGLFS
Summary of the method: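 Read-out is end-point unwinding of a fluorophore/quencher duplex (ex 525, em 598 nm) after 60 min with 200 μM ATP and 12 nM DNA (2× stocks), EDTA stop. Compound first sat 4 h with 200 pM WRN (2× stock) in pH 8.0 Tris buffer; four-parameter fit gives pIC50.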

[4] = system: SW48 human colorectal cancer cells (MSI-H cancer cells); assay: SW48 cell viability, CellTiter-Glo, 120 hours (Example B); conditions: Homo sapiens
[5] = SW48, 120 h, read-out: SW48 pCC50, SW48 cell viability, 120 hours incubation (converted), Table 2
[6] = SW48, read-out: SW48 pCC50, measured potency from Example B, as repeated in Table 3 (converted)

Row | Compound | CC50 [1] | fraction unbound at 4 h, 1 µM [2] | IC50 [3] | CC50 [4, 5] | CC50 [4, 6]
1 | Cc1nc2cc(S(=O)(=O)N(C)c3ccc([C@@H]4CCC[C@H](C(=O)Nc5ccc(C(F)(F)F)cn5)[C@H]4C(=O)O)cc3)ccc2n1C (relative stereo) [Example 168, rel-(1R,2R,6S)-2-((5-(trifluoromethyl)pyridin-2-yl)carbamoyl)-6-(4-((N,1,2-trimethyl-1H-benzo[d]imidazole)-5-sulfonamido)phenyl)cyclohexane-1-carboxylic acid] | 0.0372 µM | 0.0585 | 0.00251 µM | 0.631 µM | 0.631 µM
2 | Cc1nc2cc(S(=O)(=O)N(C)c3ccc([C@@H]4CCC[C@H](COc5ccc(C(F)(F)F)cc5)[C@H]4C(=O)O)cc3)cc([C@@H]3CCCNC3)c2n1C (relative stereo) [Example 207, rel-(1R,2R,6S)-2-((4-(trifluoromethyl)phenoxy)methyl)-6-(4-((N,1,2-trimethyl-7-((R)-piperidin-3-yl)-1H-benzo[d]imidazole)-5-sulfonamido)phenyl)cyclohexane-1-carboxylic acid, hydrochloride] | 0.11 µM | 0.0138 | 0.00158 µM | 7.94 µM | 7.94 µM
3 | Cc1nc2cc(S(=O)(=O)N(C)c3ccc([C@H]4CC[C@@H](C)[C@@H](C(=O)Nc5ccc(C(F)(F)F)cc5F)[C@@H]4C(=O)O)cc3)ccc2n1C (relative stereo) [Example 235, rel-(1R,2R,3R,6S)-2-((2-fluoro-4-(trifluoromethyl)phenyl)carbamoyl)-3-methyl-6-(4-((N,1,2-trimethyl-1H-benzo[d]imidazole)-5-sulfonamido)phenyl)cyclohexane-1-carboxylic acid] | 0.00832 µM | 0.0332 | 0.002 µM | 0.251 µM | 0.251 µM
4 | Cc1nc2cc(S(=O)(=O)N(C)c3ccc([C@H]4CCC[C@@H](C(=O)Nc5ccc(C(F)(F)F)cc5F)[C@@H]4C(=O)O)cc3)cc([C@H]3CCCNC3)c2n1C (relative stereo) [Example 269, (1R,2R,6S)-2-((2-fluoro-4-(trifluoromethyl)phenyl)carbamoyl)-6-(4-((N,1,2-trimethyl-7-((R*)-piperidin-3-yl)-1H-benzo[d]imidazole)-5-sulfonamido)phenyl)cyclohexane-1-carboxylic acid hydrochloride] | 0.646 µM | 0.257 | 0.000794 µM | 2.51 µM | 2.51 µM
5 | Cc1nc2cc(S(=O)(=O)N(C)c3ccc([C@H]4CCC[C@@H](C(=O)Nc5ccc(C(F)(F)F)cc5F)[C@@H]4C(=O)O)cc3)cc([C@H]3CCCN(C)C3)c2n1C (relative stereo) [Example 271, (1R,2R,6S)-2-((2-fluoro-4-(trifluoromethyl)phenyl)carbamoyl)-6-(4-((N,1,2-trimethyl-7-((R*)-1-methylpiperidin-3-yl)-1H-benzo[d]imidazole)-5-sulfonamido)phenyl)cyclohexane-1-carboxylic acid] | 0.0178 µM | 0.224 | 0.00158 µM | 0.0794 µM | 0.0794 µM
6 | Cc1nc2cc(S(=O)(=O)N(C)c3ccc([C@H]4C[C@@H](O[C@@H]5CCOC5)C[C@@H](C(=O)Nc5ccc(C(F)(F)F)cc5F)[C@@H]4C(=O)O)cc3)ccc2n1C (relative stereo) [Example 321, (1R*,2R*,4R*,6S*)-2-((2-fluoro-4-(trifluoromethyl)phenyl)carbamoyl)-4-(((R)-tetrahydrofuran-3-yl)oxy)-6-(4-((N,1,2-trimethyl-1H-benzo[d]imidazole)-5-sulfonamido)phenyl)cyclohexane-1-carboxylic acid] | 0.0316 µM | 0.16 | 0.00158 µM | 0.2 µM | 0.2 µM
7 | Cc1nc2cc(S(=O)(=O)N(C)c3ccc([C@H]4C[C@@H](OC[C@H]5COCCO5)C[C@@H](C(=O)Nc5ccc(C(F)(F)F)cc5F)[C@@H]4C(=O)O)cc3)ccc2n1C (relative stereo) [Example 327, (1R*,2R*,4R*,6S*)-4-(((R)-1,4-dioxan-2-yl)methoxy)-2-((2-fluoro-4-(trifluoromethyl)phenyl)carbamoyl)-6-(4-((N,1,2-trimethyl-1H-benzo[d]imidazole)-5-sulfonamido)phenyl)cyclohexane-1-carboxylic acid] | 0.0589 µM | 0.296 | 0.00251 µM | 0.2 µM | 0.2 µM
8 | COC12CC(CO[C@@H]3C[C@H](c4ccc(N(C)S(=O)(=O)c5ccc6c(c5)nc(C)n6C)cc4)[C@@H](C(=O)O)[C@H](C(=O)Nc4ccc(C(F)(F)F)cc4F)C3)(C1)C2 (relative stereo) [Example 332, rel-(1R,2R,4R,6S)-2-((2-fluoro-4-(trifluoromethyl)phenyl)carbamoyl)-4-((3-methoxybicyclo[1.1.1]pentan-1-yl)methoxy)-6-(4-((N,1,2-trimethyl-1H-benzo[d]imidazole)-5-sulfonamido)phenyl)cyclohexane-1-carboxylic acid] | 0.0123 µM | 0.122 | 0.00398 µM | 0.1 µM | 0.1 µM
9 | Cc1nc2cc(S(=O)(=O)N(C)c3ccc([C@H]4C[C@@H](N5CCCC(F)(F)C5)C[C@@H](C(=O)Nc5ccc(C(F)(F)F)cc5F)[C@@H]4C(=O)O)cc3)ccc2n1C (relative stereo) [Example 353, rel-(1R,2R,4R,6S)-4-(3,3-difluoropiperidin-1-yl)-2-((2-fluoro-4-(trifluoromethyl)phenyl)carbamoyl)-6-(4-((N,1,2-trimethyl-1H-benzo[d]imidazole)-5-sulfonamido)phenyl)cyclohexane-1-carboxylic acid] | 0.00447 µM | 0.113 | 0.00158 µM | 0.0398 µM | 0.0398 µM
10 | CCO[C@@H]1C[C@H](c2ccc(N(C)S(=O)(=O)c3ccc4c(c3)nc(Cl)n4C)cc2)[C@@H](C(=O)O)[C@H](C(=O)Nc2ccc(C(F)(F)F)cc2F)C1 (relative stereo) [Example 361, rel-(1R,2S,4R,6R)-2-(4-((2-chloro-N,1-dimethyl-1H-benzo[d]imidazole)-5-sulfonamido)phenyl)-4-ethoxy-6-((2-fluoro-4-(trifluoromethyl)phenyl)carbamoyl)cyclohexane-1-carboxylic acid] | 0.0316 µM | 0.0632 | 0.00158 µM | 0.501 µM | 0.501 µM
11 | Cc1nc2cc(S(=O)(=O)N(C)c3ccc([C@H]4CC(F)(F)C[C@@H](C(=O)Nc5ccc(C(F)(F)F)cc5F)[C@@H]4C(=O)O)cc3)ccc2n1C (relative stereo) [Example 363, rel-(1R,2R,6S)-4,4-difluoro-2-((2-fluoro-4-(trifluoromethyl)phenyl)carbamoyl)-6-(4-((N,1,2-trimethyl-1H-benzo[d]imidazole)-5-sulfonamido)phenyl)cyclohexane-1-carboxylic acid] | 0.017 µM | 0.216 | 0.00316 µM | 0.0794 µM | 0.0794 µM
12 | Cc1nc2cc(S(=O)(=O)N(C)c3ccc([C@H]4C[C@@H](CS(C)(=O)=O)C[C@@H](C(=O)Nc5ccc(C(F)(F)F)cc5F)[C@@H]4C(=O)O)cc3)ccc2n1C (relative stereo) [Example 395, rel-(1R,2R,4R,6S)-2-((2-fluoro-4-(trifluoromethyl)phenyl)carbamoyl)-4-((methylsulfonyl)methyl)-6-(4-((N,1,2-trimethyl-1H-benzo[d]imidazole)-5-sulfonamido)phenyl)cyclohexane-1-carboxylic acid] | 0.0871 µM | 0.0875 | 0.00158 µM | 1 µM | 1 µM
13 | Cc1nc2cc(S(=O)(=O)N(C)c3ccc([C@@H]4C[C@H](N5CC6(F)CC5C6)C[C@H](C(=O)Nc5ccc(C(F)(F)F)cc5F)[C@H]4C(=O)O)cc3)ccc2n1C (relative stereo) [Example 397, rel-(1R,2R,4R,6S)-2-((2-fluoro-4-(trifluoromethyl)phenyl)carbamoyl)-4-(4-fluoro-2-azabicyclo[2.1.1]hexan-2-yl)-6-(4-((N,1,2-trimethyl-1H-benzo[d]imidazole)-5-sulfonamido)phenyl)cyclohexane-1-carboxylic acid] | 0.0166 µM | 0.0527 | 0.00158 µM | 0.316 µM | 0.316 µM
